One experiment concerns THP-1 cells. Description: Cell growth inhibition assay (CellTiter-Glo), THP-1. Type of experiment: cell-based. Particulars: Homo sapiens. The method, boiled down:
(§1)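 Cellular ATP (CellTiter-Glo luminescence) measured after 4 days at 37° C., 5% CO2 of compound exposure, top concentration 10 μM in 3-fold steps, 0.1% DMSO. Readings corrected for no-cell background and a day-0 plate, normalised to vehicle and medium wells; half-maximal and total growth inhibition from four-parameter curves.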
Background: In ATP-based viability assays light output follows the ATP content of the culture.

Another experiment concerns K-562 cells. The experiment in a line: Cell growth inhibition assay (CellTiter-Glo), K-562. Type of experiment: cell-based, human. The conditions noted are these: for GI50: Homo sapiens, K562. The method, boiled down: as §1
The next experiment deals with MV-4-11 cells. The experiment in a line: Cell growth inhibition assay (CellTiter-Glo), MV-4-11. Particulars: Homo sapiens, MV4-11. Type of experiment: cell-based. The method, boiled down: as §1

Where only a bound is given, the exact number is not on record here.

One may read the GI50 as the concentration at which growth is held to half of that of the control. The low end stands for more potent growth inhibition, the high end for less potent growth inhibition. On to `CCc1nn(-c2cnc(OC)nc2OC)c2c1C(c1ccc(Cl)cc1)N(c1cc(C)c(=O)n(C)c1)C2=O` (stereo not drawn) [Example 60, 4-(4-chlorophenyl)-1-(2,4-dimethoxypyrimidin-5-yl)-5-(1,5-dimethyl-6-oxo-1,6-dihydropyridin-3-yl)-3-ethyl-4,5-dihydropyrrolo[3,4-c]pyrazol-6(1H)-one], for which the 50% growth inhibitory concentration (GI50) worked out at 166 nM with THP-1 cells, 456 nM in the experiment with K-562 cells and 86.9 nM with MV-4-11 cells.
For `Cc1nn(C(C)C)c2c1C(c1ccc(Cl)cc1F)N(c1cc(C)c(=O)n(C)c1)C2=O` (stereo not drawn) [Example 180, 4-(4-chloro-2-fluorophenyl)-5-(1,5-dimethyl-6-oxo-1,6-dihydropyridin-3-yl)-1-isopropyl-3-methyl-4,5-dihydropyrrolo[3,4-c]pyrazol-6(1H)-one], in that order: 81.4 nM, 266 nM and 68 nM.
Turning to `COc1ncccc1-n1nc(C)c2c1C(=O)N(c1cc(C)c(=O)n(C)c1)C2c1ccc(Cl)cc1` (stereo not drawn) [Example 71, 4-(4-chlorophenyl)-5-(1,5-dimethyl-6-oxo-1,6-dihydropyridin-3-yl)-1-(2-methoxypyridin-3-yl)-3-methyl-4,5-dihydropyrrolo-[3,4-c]pyrazol-6(1H)-one], the GI50 came out at 75.6 nM in the experiment on THP-1 cells, 345 nM in the experiment with K-562 cells and 66.6 nM in the experiment on MV-4-11 cells. Moreover, the IC (TGI) with K-562 cells was >10000 nM.
For the molecule `Cc1cc(N2C(=O)c3nn(C(=O)N(C)C)c(C)c3[C@H]2c2ccc(Cl)cc2)cn2c(C)nnc12` [Example 150, (R)-4-(4-chlorophenyl)-5-(3,8-dimethyl-[1,2,4]triazolo[4,3-a]pyridin-6-yl)-N,N,3-trimethyl-6-oxo-5,6-dihydropyrrolo-[3,4-c]pyrazole-2(4H)-carboxamide], the values for the GI50 in the experiment with THP-1 cells, in the experiment with K-562 cells and in the experiment on MV-4-11 cells were 101 nM, 406 nM and 55.5 nM, respectively.
Consider `Cc1cc(N2C(=O)c3nn(C4CN(C)C4)c(C)c3C2c2ccc(Cl)cc2)cn(C)c1=O` (stereo not drawn) [Example 139, 4-(4-chlorophenyl)-5-(1,5-dimethyl-6-oxo-1,6-dihydropyridin-3-yl)-3-methyl-2-(1-methylazetidin-3-yl)-4,5-dihydropyrrolo-[3,4-c]pyrazol-6(2H)-one], for which the values for the GI50 in the experiment with THP-1 cells, in the experiment on K-562 cells and with MV-4-11 cells were 190 nM, 591 nM and 72.9 nM, respectively.
Take `Cc1nn(C)c2c1C(c1ccc(Cl)cc1)N(c1cc(Cl)c(=O)n(C)c1)C2=O` (stereo not drawn) [Example 58, 5-(5-chloro-1-methyl-6-oxo-1,6-dihydropyridin-3-yl)-4-(4-chlorophenyl)-1,3-dimethyl-4,5-dihydropyrrolo[3,4-c]pyrazol-6(1H)-one]: the GI50 in the experiment on THP-1 cells amounted to 189 nM; in the experiment with K-562 cells, 1140 nM; with MV-4-11 cells, 94.4 nM.
Regarding `CCc1nn(CCOC)c2c1C(c1ccc(Cl)cc1)N(c1cc(C)c(=O)n(C)c1)C2=O` (stereo not drawn) [Example 86, 4-(4-chlorophenyl)-5-(1,5-dimethyl-6-oxo-1,6-dihydropyridin-3-yl)-3-ethyl-1-(2-methoxyethyl)-4,5-dihydropyrrolo[3,4-c]pyrazol-6(1H)-one], the figures for the GI50 with THP-1 cells, in the experiment on K-562 cells and in the experiment with MV-4-11 cells were 63.8 nM, 229 nM and 34.6 nM, respectively.
Turning to `Cc1cc(N2C(=O)c3c(c(CO)nn3C3CC3)C2c2ccc(Cl)cc2)cn2c(C)nnc12` (stereo not drawn) [Example 131, 4-(4-chlorophenyl)-1-cyclopropyl-5-(3,8-dimethyl-[1,2,4]triazolo[4,3-a]pyridin-6-yl)-3-(hydroxymethyl)-4,5-dihydropyrrolo-[3,4-c]pyrazol-6(1H)-one], the GI50 with THP-1 cells is 59.7 nM; in the experiment on K-562 cells, 215 nM; with MV-4-11 cells it was 24.5 nM. In the experiment with K-562 cells, the IC (TGI) was >10000 nM.
As for `COc1ncc(-n2nc3c(c2C)C(c2ccc(Cl)cc2)N(c2cc(C)c(=O)n(C)c2)C3=O)c(OC)n1` (stereo not drawn) [Example 56, 4-(4-chlorophenyl)-2-(2,4-dimethoxypyrimidin-5-yl)-5-(1,5-dimethyl-6-oxo-1,6-dihydropyridin-3-yl)-3-methyl-4,5-dihydropyrrolo[3,4-c]pyrazol-6(2H)-one], the GI50 with THP-1 cells is 70.2 nM; in the experiment with K-562 cells, 265 nM; with MV-4-11 cells it was 57.4 nM.
For the molecule `CCc1nn(C)c2c1C(c1ccc(Cl)cc1)N(c1cc(OC)c3nnc(C)n3c1)C2=O` (stereo not drawn) [Example 105, 4-(4-chlorophenyl)-3-ethyl-5-(8-methoxy-3-methyl-[1,2,4]triazolo[4,3-a]pyridin-6-yl)-1-methyl-4,5-dihydropyrrolo-[3,4-c]pyrazol-6(1H)-one], the 50% growth inhibitory concentration (GI50) came out at 188 nM with THP-1 cells, 729 nM in the experiment on K-562 cells and 102 nM in the experiment with MV-4-11 cells.
For the molecule `CCn1nc(C)c2c1C(=O)N(c1cc(C)c3nnc(C)n3c1)C2c1ccc(Cl)cc1F` (stereo not drawn) [Example 185, 4-(4-chloro-2-fluorophenyl)-5-(3,8-dimethyl-[1,2,4]triazolo[4,3-a]pyridin-6-yl)-1-ethyl-3-methyl-4,5-dihydropyrrolo-[3,4-c]pyrazol-6(1H)-one], the GI50 in the experiment with THP-1 cells came to 36.8 nM; in the experiment with K-562 cells, 136 nM; with MV-4-11 cells, 24.2 nM.
Consider `COc1ncc(-n2nc3c(c2C(C)C)[C@@H](c2ccc(Cl)cc2)N(c2cc(C)c4onc(C)c4c2)C3=O)c(OC)n1` [Example 62, (R)-4-(4-chlorophenyl)-2-(2,4-dimethoxypyrimidin-5-yl)-5-(3,7-dimethylbenzo[d]-isoxazol-5-yl)-3-isopropyl-4,5-dihydropyrrolo[3,4-c]pyrazol-6(2H)-one], for which the GI50 in the experiment on THP-1 cells turned out to be 97.7 nM; in the experiment on K-562 cells, 316 nM; in the experiment with MV-4-11 cells it was 58.4 nM. Moreover, the IC (TGI) in the experiment on K-562 cells is >10000 nM.
With `CCn1nc(C)c2c1C(=O)N(c1cc(C)c3nnc(C)n3c1)C2c1ccc(F)cc1F` (stereo not drawn) [Example 181, 4-(2,4-difluorophenyl)-5-(3,8-dimethyl-[1,2,4]triazolo[4,3-a]pyridin-6-yl)-1-ethyl-3-methyl-4,5-dihydropyrrolo[3,4-c]pyrazol-6(1H)-one], the GI50 in the experiment with THP-1 cells came out at 51.9 nM; in the experiment with K-562 cells, 160 nM; in the experiment on MV-4-11 cells it was 47.1 nM.
For `Cc1nn(C(C)C)c2c1[C@@H](c1ccc(Cl)cc1F)N(c1cc(C)c3nnc(C)n3c1)C2=O` [Example 189, (S)-4-(4-chloro-2-fluorophenyl)-5-(3,8-dimethyl-[1,2,4]triazolo[4,3-a]pyridin-6-yl)-1-isopropyl-3-methyl-4,5-dihydropyrrolo[3,4-c]pyrazol-6(1H)-one], in that order: 11.3 nM, 88.5 nM and 14.1 nM.
For `COc1ncc(-n2nc3c(c2C)C(c2ccc(Cl)cc2)N(c2cc(Cl)c(=O)n(C)c2)C3=O)c(OC)n1` (stereo not drawn) [Example 55, 5-(5-chloro-1-methyl-6-oxo-1,6-dihydropyridin-3-yl)-4-(4-chlorophenyl)-2-(2,4-dimethoxypyrimidin-5-yl)-3-methyl-4,5-dihydropyrrolo[3,4-c]pyrazol-6(2H)-one], in that order: 231 nM, 400 nM and 89.1 nM.
For `CNC(=O)n1nc2c(c1C)C(c1ccc(Cl)cc1)N(c1cc(C)c3nnc(C)n3c1)C2=O` (stereo not drawn) [Example 146, 4-(4-chlorophenyl)-5-(3,8-dimethyl-[1,2,4]triazolo[4,3-a]pyridin-6-yl)-N,3-dimethyl-6-oxo-5,6-dihydropyrrolo[3,4-c]pyrazole-2(4H)-carboxamide], in that order: 150 nM, 314 nM and 39.2 nM.
For `Cc1cc(N2C(=O)c3nn(C4COC4)c(C)c3C2c2ccc(Cl)cc2)cn2c(C)nnc12` (stereo not drawn) [Example 136, 4-(4-chlorophenyl)-5-(3,8-dimethyl-[1,2,4]triazolo[4,3-a]pyridin-6-yl)-3-methyl-2-(oxetan-3-yl)-4,5-dihydropyrrolo-[3,4-c]pyrazol-6(2H)-one], the results for the GI50 in the experiment on THP-1 cells, in the experiment with K-562 cells and in the experiment with MV-4-11 cells were 80.2 nM, 335 nM and 28.2 nM, respectively.
For `CCc1c2c(nn1C1CC1)C(=O)N(c1cc(C)c(=O)n(C)c1)C2c1ccc(Cl)cc1` (stereo not drawn) [Example 68, 4-(4-chlorophenyl)-2-cyclopropyl-5-(1,5-dimethyl-6-oxo-1,6-dihydropyridin-3-yl)-3-ethyl-4,5-dihydropyrrolo-[3,4-c]pyrazol-6(2H)-one] the same measures were 47.7 nM, 157 nM and 30.1 nM.
For `Cc1nn(C2CC2)c2c1C(c1ccc(Cl)cc1)N(c1cc(N(C)C(=O)OC(C)(C)C)c3nnc(C)n3n1)C2=O` (stereo not drawn) [Example 112, tert-butyl (6-(4-(4-chlorophenyl)-1-cyclopropyl-3-methyl-6-oxopyrrolo[3,4-c]pyrazol-5(1H,4H,6H)-yl)-3-methyl-[1,2,4]triazolo[4,3-b]pyridazin-8-yl)(methyl)carbamate] the same measures were 1280 nM, 2810 nM and 758 nM.
For `Cc1nn(C)c2c1C(c1ccc(Cl)cc1)N(c1cc(C)c(=O)n(C)c1)C2=O` (stereo not drawn) [Example 57, 4-(4-chlorophenyl)-5-(1,5-dimethyl-6-oxo-1,6-dihydropyridin-3-yl)-1,3-dimethyl-4,5-dihydropyrrolo-[3,4-c]pyrazol-6(1H)-one] the same measures were 117 nM, 480 nM and 69.5 nM.
`Cc1nn(C2CC2)c2c1C(c1ccc(C(F)(F)F)cc1)N(c1cc(C)c(=O)n(C)c1)C2=O` (stereo not drawn) [Example 97, 1-cyclopropyl-5-(1,5-dimethyl-6-oxo-1,6-dihydropyridin-3-yl)-3-methyl-4-(4-(trifluoromethyl)phenyl)-4,5-dihydropyrrolo-[3,4-c]pyrazol-6(1H)-one]: the GI50 in the experiment with THP-1 cells is 164 nM; in the experiment with K-562 cells it was 684 nM; in the experiment on MV-4-11 cells, 68 nM.
For `Cc1nn(C2CCC2)c2c1C(c1ccc(Cl)cc1)N(c1cc(C)c(=O)n(C)c1)C2=O` (stereo not drawn) [Example 94, 4-(4-chlorophenyl)-1-cyclobutyl-5-(1,5-dimethyl-6-oxo-1,6-dihydropyridin-3-yl)-3-methyl-4,5-dihydropyrrolo-[3,4-c]pyrazol-6(1H)-one], in that order: 34.4 nM, 96.9 nM and 19.5 nM.

The record behind these values is patent publication US20160095843A1, “PYRAZOLOPYRROLIDINE DERIVATIVES AND THEIR USE IN THE TREATMENT OF DISEASE” (NOVARTIS AG, priority 2013, published 2016).
